Tests used:
[1] = tested on: ERK (extracellular signal-related kinase); settings: according to a previous study; cited from earlier work
tube formation = experiment: Tube formation, Kurabo Angiogenesis kit with CD31 staining and image quantification; format: cell-based, human; settings: for Area (% increase): Example 5, Table 4; for Length (% increase): Example 5, Table 5; for tube Area % Increase / tube Length % Increase: Table 2
Description: Using a Kurabo Angiogenesis kit (KZ-1000, Kurabo Industries Ltd.), tube formation was examined. A blank, vascular endothelial growth factor-A protein (VEGF-A), pVEGF plasmid (plasmid containing a gene encoding vascular endothelial growth factor), and pSPORT1 (a plasmid not containing a gene encoding vascular endothelial growth factor) were used as controls. […]
Culture was carried out at 37° C. in a 5% CO2 incubator. The medium was exchanged on the 4th, 7th and 9th days of culture with a fresh medium containing the same additives.
CD31 (PECAM-1) staining primary antibody (mouse anti-human CD31 antibody) was diluted 4,000-fold with a blocking solution (Dulbecco's phosphate buffer solution (PBS(−)) containing 1% BSA). 0.5 ml of this primary antibody solution was added to each well and incubated for 60 minutes at 37° C. After incubation was finished, each well was washed 3 times with 1 ml blocking solution.
Then, 0.5 ml of a secondary antibody (goat anti-mouse IgG/alkali phosphatase conjugate) solution, diluted 500-fold with the blocking solution, was added to each well and incubated for 60 minutes at 37° C., and each well was washed 3 times with 1 ml distilled water. Separately, 2 tablets of BCIP/NBT were dissolved in 20 ml distilled water and filtered through a filter with a pore size of 0.2 μm, to prepare a substrate solution. 0.5 ml of the prepared BCIP/NBT substrate solution was added to each well and incubated at 37° C. until the tube turned deep violet (usually in 5 to 10 minutes). After incubation was finished, each well was washed 3 times with 1 ml distilled water, followed by removing the washing solution using suction, and the plate was left to air-dry. After drying, each well was observed under a microscope.
Each well was observed under a 40× magnification microscope and a photograph of each well was taken. An enlarged photograph with the scale of 1 mm magnified 40-fold was taken (FIG. 5).
Each of the resulting images was quantified with angiogenesis quantification software (KSW-5000U, Kurabo Industries Ltd.) according to the following method. The area (left in FIG. 6) and length (right in FIG. 6) of tubes formed in each visual field were measured on the scale by computer analysis with various indicators. […]

HAEC = experiment: MTS assay of endothelial cell proliferation with added peptide; format: cell-based, human; settings: MTS, Table 3
Description: F2 peptide was synthesized and then contacted in a varying amount with HAEC, and the ability thereof to proliferate the cells was examined by MTS assay. The MTS assay is a modification of the MTT assay, and is a method of measuring living cells based on a reaction of reducing tetrazolium salt (MTS) by living cells in culture, into a colored product formazan. Specifically, this assay is carried out as follows: • HAEC was inoculated onto a 96-well plate at a density of 750 cells/well. • 2 μl/well of each sample was added to 100 μl/well endothelial cell medium (1% FBS, without EGF). 2 μl/well was added every day (until Day 6) (the medium was not exchanged). • 20 μl measurement solution (Cell Titer 96 AQueous One Solution Cell Proliferation Assay (Promega)) was added to each well and mixed with 100 μl of the endothelial cell medium, and the old medium was removed by suction. A mixed suspension of the measurement solution and the cells was put in a volume of 120 μl/well and then incubated for 1 to 5 hours in a CO2 incubator. • The absorbance at 490 nm was measured with a plate reader.
The sample group (8 wells each) is as follows: • NC: Only EBM medium (endothelial cell medium) containing 1% FBS. The other samples were cultured by adding various peptides to this medium containing serum. • VEGF-A: Recombinant VEGF-A (KURABO) was added at a final concentration of 10 ng/ml. • F2-1: F2 peptide was added at a final concentration of 1 ng/ml. • F2-10: F2 peptide was added at a final concentration of 10 ng/ml. • F2-100: F2 peptide was added at a final concentration of 100 ng/ml. • F2-1000: F2 peptide was added at a final concentration of 1000 ng/ml.

[2] = tested on: phosphatidyl inositol-3-kinase/Akt (PI3K/Akt); settings: according to a previous study; cited from earlier work
HEAC endothelial cells = experiment: Endothelial cell migration, modified Boyden chamber; format: cell-based, human
Description: A polyvinyl pyrrolidone (PVP)-free polycarbonate membrane having […] (Neuro Probe Inc., Gaithersburg, Md.) was coated overnight with 0.1% gelatin and then washed with phosphate buffered saline to remove an excess of the gelatin coating. Then, 28 μl growth factor-free EBM2 medium supplemented with 1% FBS was arranged in a lower chamber, and the membrane was arranged on the lower chamber. […] The Boyden chamber was incubated at 37° C. for 4 hours. After incubation, the membrane was removed and the cells on the upper side of the membrane were removed. The cells on the lower side of the membrane were stained with Diff-Quick (Sysmex, Hyogo Pref., JP). The cells in each of randomly selected 8 visual fields (×100) were counted.

c-fos promoter = c-fos promoter assay (c-fos-Luci luciferase); format: cell-based, bovine
Description: To further confirm the proliferation ability, an assay using a promoter of proto-oncogene c-fos, which is activated in the earliest stage of cell proliferation, was carried out. The gene c-fos-Luci having luciferase ligated under this promoter, and a candidate gene, were introduced in a weight ratio of 1:1 by lipofection into bovine vascular endothelial cells, and after 24 to 48 hours, the luciferase activity was measured.

VEGF promoter = VEGF promoter assay (luciferase gene ligated to VEGF promoter); format: cell-based, bovine; settings: FIG. 3 right graph
[3] = tested on: human aortic endothelial cells (HAEC); experiment: Cell proliferation assay after gene transfer into HAEC (Cell Titer 96); format: cell-based; settings: HAEC as host cell; FIG. 4
Description: A human heart cDNA library (a plasmid having human heart-derived cDNA ligated to plasmid pSPORT having a CMV promoter; GIBCO BRL) was introduced into E. coli DH12S, and the plasmid prepared from the E. coli. 200 μg of the plasmid was encapsulated in 10000 HAU of the HVJ-E gene-transfer vector (the gene-transfer vector, 3×10^9 particles, prepared in Example 2 in the present invention). As host cells, human aortic endothelial cells HEAC (Sanko Junyaku Co., Ltd.), about 5000 cells, were added together with medium to each well of a 96-well microtiter plate, then cultured overnight and used. 1/100 of the HVJ-E was added to each well containing the host cells, and then left at 37° C. for 30 minutes, followed by exchanging the medium. […]
After2 weeks, a cell proliferation assay was carried out. Using Cell Titer 96 (Promega) as a reagent, the oxidoreduction of mitochondria was measured as a change in the color of the reagent and used as an indicator of cell growth. […]
Each of nine clones having the insert was encapsulated respectively in HVJ-E and subjected to a second screening, and as a result, a gene showing a high proliferation activity was obtained. […] The gene c-fos-Luci having luciferase ligated under this promoter, and a candidate gene, were introduced in a weight ratio of 1:1 by lipofection into bovine vascular endothelial cells, and after 24 to 48 hours, the luciferase activity was measured. […]

[4] = tested on: human vascular smooth muscle cell (VSMC); experiment: Cell proliferation after gene transfer into VSMC; format: cell-based; settings: FIG. 4

**Q.** Which results are given for “LL-37 peptide: peptide having antimicrobial activity, angiogenesis activity and artery-forming activity; rich in arginine, α-helix structure [reference compound]”?
**A.** effect on ERK activity [1]: increased rapidly; Area (% increase) (tube formation; 1 μg/ml): 70.1%; Length (% increase) (tube formation; 1 μg/ml): 60.9%; Area (% increase) (tube formation; 10 μg/ml): 43%; Length (% increase) (tube formation; 10 μg/ml): 28%; endothelial proliferation Increase [times] (HAEC; 100 ng/ml): 1.279 times; endothelial proliferation Increase [times] (HAEC; 1 μg/ml): 1.361 times; effect on PI3K/Akt activity [2]: increased rapidly

**Q.** Which results are given for “RSLEGTDRFPFVRLKNSRKLEFKDIKGIKR (CONTROL PEPTIDE) [reference compound]”?
**A.** migration % Increase (HEAC endothelial cells; 1 μg/ml, 4 hours): −10.1%; cell migration activity (in words) (HEAC endothelial cells; F2 0.01 to 1 μg/ml, control peptide 1 μg/ml, VEGF 50 ng/ml, FIG. 10): not observed; tube Area % Increase (tube formation; 1 μg/ml): −12%; tube Length % Increase (tube formation; 1 μg/ml): −11%; tube Area % Increase (tube formation; 10 μg/ml): −9%; tube Length % Increase (tube formation; 10 μg/ml): −3%

**Q.** For “f1: gene fragment, nucleotide sequence No. 2764-3073 in the frame of SART-2, ligated with expression vector pCDNA3.1”, which “activity in c-fos promoter assay of gene fragments in pCDNA3.1” value (c-fos promoter; FIG. 8) is on record?
**A.** no activity

**Q.** With “p3743: gene clone (plasmid) from a human heart cDNA library; insert is nucleotide sequence No. 2364-3958 in SART-2” as the substance, how does the “activation of the VEGF promoter, compared with VEGF” value (VEGF promoter) read?
**A.** higher activation of the VEGF promoter than by VEGF

**Q.** And the “proliferation ability in HAEC after gene introduction” value [3]?
**A.** higher proliferation ability than HGF

**Q.** What about the “proliferation activity in human vascular smooth muscle cells after gene introduction” value [4] of the same substance?
**A.** same as that of the negative control, GFP

**Q.** And the “area and length of the formed tubes” value (tube formation; supernatant of HAEC into which the gene had been introduced, FIG. 6)?
**A.** significantly greater

**Q.** And the “ability to activate the c-fos promoter, compared with VEGF” value (c-fos promoter; FIG. 3 left graph)?
**A.** higher ability to activate the c-fos promoter than VEGF

**Q.** And the “luciferase activity (activation of c-fos promoter), compared with HGF” value (c-fos promoter; candidate gene and c-fos-Luci 1:1 by lipofection, bovine vascular endothelial cells, after 24 to 48 hours, FIG. 2)?
**A.** higher luciferase activity than HGF

From patent publication US7807176B2, “Polypeptide promoting vascular endothelial cell growth” (Genomidea, Inc., priority 2004, dated 2010)
